Source: patent US20020090619A1, “Methods for identifying mitochondrial divalent cation transporters” (priority 2000, published 2002)

Legend:
[1] = tested on: isolated yeast mitochondria; experiment: Ca2+ transport in isolated yeast mitochondria expressing aequorin (luminescence); format: biochemical, Saccharomyces cerevisiae; conditions: for Rate of increase in matrix Ca^2+ concentration / % of Control: external free Ca^2+ 0.8 μM, agent 1 μM; for Rate of increase in matrix Ca^2+ concentration: triplicate; for % of Control: rate of increase in matrix Ca^2+
Method: For preculture, the transformant was inoculated into 50 ml of SC-U plus 2% glucose, and incubated in an air shaker at 180 rpm and 30° C. At 24 hr, the preculture was transferred to 500 ml of a medium containing 1% yeast extract, 2% peptone, 2% lactate, 1% galactose, 0.012% adenine, pH 5 w/NaOH, and growth was continued under conditions which were otherwise the same. Cells were harvested after an additional 24 hr, spheroplasts were prepared using zymolyase, and mitochondria were isolated by the method of Daum et al. (1982) as previously described (Jung et al., 1997). The final pellet was resuspended at ˜20 mg protein/ml in 0.6 M mannitol, 20 mM HEPES (K^+ salt, pH 6.8). Apoaequorin in the intact or disrupted mitochondria was reconstituted by incubation with coelenterazine as described above for cells.
For most experiments, the mitochondria were present at 0.4 mg protein/ml in a standard medium that contained 0.3 M KCl, 20 mM HEPES, (K^+ salt, pH 7.10), 10 mM KH2PO4, 2 mM EGTA, and 2 mM MgCl2. Other additions are described in greater detail below. Ca^2+ buffers were formed by adding various amounts of CaCl2 to this EGTA containing medium. The free Ca^2+ concentrations which resulted were calculated using a computer program (Brooks et al., 1992 Anal. Biochem. 201:119).
Luminescence measurements were carried out in 6×50 mm culture tubes, using a total volume of 0.3 ml, and were started by injection of 5-20 μl of mitochondria or cells. A SAI model 3000 integrating photometer was employed, with AJD sampling at 0.4 seconds intervals driven by Asyst software. Values were transformed into corresponding Ca^2+ concentrations by computer assisted calculations based upon published calibration methods (Allen et al., 1977 Science 195:996; Brini et al., 1995 J. Biol. Chem. 270:9896). For each value, the ratio of observed luminescence (L) to the potential luminescence remaining (Lmax) was calculated, and compared to a calibration curve which relates this ratio to the free Ca^2+ concentration. Thus, complete calibrated progress curves were generated. The total luminescence available initially (Ltotal) must be known and was determined in separate experiments, wherein a saturating Ca^2+ concentration (20 μM) is employed to discharge the aequorin completely. This value allows Lmax to be calculated at any time, as Ltotal minus the sum of luminescence that already occurred.
The calibration data were obtained at an ionic strength of 335 mM and in the presence of 1 mM Mg^2+, to mimic conditions in the mitochondrial matrix, because both factors influence the affinity of aequorin for Ca2+ (Cobbold et al., 1987 Biochem. J. 248:313). Luminescence values were corrected for low background values that are obtained when Ca^2+ is absent before conducting further calculations.

[2] = ETH 129 mediated cation transport into Quin-2 loaded POPC vesicles; format: biochemical; conditions: 1.0 mM CaCl2, no Val, FIG. 5
Method: Unilamellar vesicles loaded with Quin-2 were prepared from 1-palmitoyl-2-oleoyl-sn-glycerophosphatidylcholine (POPC) by freeze-thaw extrusion (Erdahl et al., 1994 Biophys. J. 66:1678; Erdahl et al., 1995 Biophys. J. 69:2350). The formation medium contained 5 mM Quin-2 (K+), 10 mM Hepes (K+), pH 7.00, and 100 mM KCl. A high internal K+ concentration was sought to allow the generation of membrane potentials of varying magnitude (see below). The preparations obtained were applied to Sephadex™ G-50 mini-columns (Pharmacia, Piscataway N.J.) and eluted by low speed centrifugation (Fry et al., 1978 Anal. Biochem. 90:809), to replace the external medium with a 10 mM Hepes buffer (Na+), pH 7.00 (Erdahl et al., 1994 Biophys. J. 66:1678; Erdahl et al., 1995 Biophys. J. 69:2350). The nominal concentration of POPC in final preparations was determined as lipid phosphorus (Bartlett, 1959 J Biol. Chem. 234:466) and was near 80 mM. The average diameter of these vesicles was 71 nm as determined by freeze-fracture electron microscopy (Chapman et al., 1990 Chem. Phys. Lipids 55:73). They contained entrapped K+ at approximately 125 mM, as determined by atomic absorption spectroscopy, and Quin-2 at approximately 6 mM. The latter value was determined by titrating lysed vesicles with a standard solution of CaCl2 and was about one third of the expected value (Erdahl et al., 1995 Bipohys. J. 69:3250). The high solute level in the formation medium reduced the efficiency of Quin-2 entrapment by reducing the effectiveness of a freeze-thaw driven solute concentrating mechanism that normally elevates the internal concentrations of solutes, relative to the external medium (Chapman et al., 1990 Chem. Phys. Lipids 55:73; Chapman et al., 1990 Chem. Phys. Lipids 60:201).
POPC vesicles containing Quin-2 were utilized at a nominal phospholipid concentration of 1.0 mM, and at 25° C. The external medium contained polyvalent cation salts as described below, 100 mM NaCl, or mixtures of NaCl and KCl totaling […], and 10 mM Hepes, pH 7.00, unless otherwise noted. The medium pH was adjusted with NaOH that had been passed over Chelex 100 columns to remove contaminating cations (Erdahl et al., 1994 Biophys. J. 66:1678). In most cases an inside negative membrane electrical potential was present during the experiments. This was generated by the presence of 0.5 μM valinomycin (Val), which transports K+ out of the vesicles electrogenically (Erdahl et al., 1994 Biophys. J. 66:1678). The magnitude of the potential was controlled by varying the concentration ratio of Na+ to K+ in the external medium. A TPP+electrode was used to measure the potential (Broekemeier et al, 1998 Biochem. 37:13059), and thereby to verify that the calculated values were obtained. For these purposes the incubation medium contained 2.0 μM TPP.Cl and the entrapped volume was taken to be 2.02 μl/ml at a nominal POPC concentration of 1.0 mM (Chapman et al., 1990 Chem. Phys. Lipids 55:73).
Val was omitted when an imposed membrane potential was not desired, or in some cases 5 μM of the protonophore carbonyl cyanide m-chlorophenylhydrazone (CCP) was present instead of Val.
The transport of polyvalent cations was monitored by difference absorbance measurements which detected formation of the Quin-2:cation complex within the vesicle lumen. An Aminco DW2a spectrophotometer operated in the dual wavelength mode was employed. In addition, an Oriel No. 59800 band pass filter was used between the cuvette and the beam scrambler-photomultiplier assembly to prevent detection of the fluorescent light emitted by Quin-2. The sample wavelength for all cations was 264 nm. The reference wavelengths were at an isosbestic point in the Quin-2/Quin-2:cation complex difference spectrum of interest. These wavelengths varied slightly from cation to cation, as previously described (Erdahl et al., 1996 Biochem. 35:13817). […]

yeast mitochondria = experiment: Membrane potential ΔΨ of isolated yeast mitochondria (safranin O); format: biochemical, Saccharomyces cerevisiae; conditions: for effect on the depression of ΔΨ produced by ETH 129 plus Ca2+: 60 μM CaCl2, 3.6 μM ETH 129
Method: The yeast strain W303-1A (Saccharomyces cerevisiae) was grown aerobically at 30° C. in a medium containing 2% lactate, 1% yeast extract, 2% peptone, 0.05% dextrose, and 0.01% adenine at pH 5.0, and cells were harvested during the logarithmic phase (A600=1.8−2.2). Mitochondria were isolated from spheroplasts as previously described (Jung et al., 1997 J. Biol. Chem. 272:21104), except that 0.6 M sucrose was used in the homogenization medium instead of 0.6 M mannitol (Daum et al., 1982 J. Biol. Chem. 257:13028). The resulting preparations were maintained on ice and were suspended in 0.6 M mannitol 20 mM HEPES (K+) (pH 6.8), containing 0.75 mg/ml BSA and 0.1 mM EGTA. Protein concentration was determined by a reduced volume Biuret method in which 50 μl of the final preparation were solubilized by adding an equal volume of 10% deoxycholate (Na+), with 0.4 ml of Biuret reagent added to the resulting mixture. BSA was employed as the standard.
Unless otherwise noted, mitochondria were incubated at 1 mg protein/ml and at approximately 25° C. in a medium that contained 0.6 M mannitol, 10 mM Pi (K+), 10 mM Hepes (TEA+), pH 7.2, plus 1 mM ethanol as an oxidizable substrate. Compounds having a low solubility in water were added from stock solutions prepared in methanol or DMSO. Ca2+ transport and membrane potential were monitored using the indicating dyes antipyrylazo III (ΔA720-790) and safranin O (ΔA511-533), respectively (Akerman et al., 1976 FEBS Lett. 68:191; Scarpa et al., 1978 Biochem. 17:1378). An SLM Aminco DW-2C spectrophotometer operated in the dual wavelength mode was employed for these purposes. The same instrument, operated in split beam mode, was used to monitor mitochondrial swelling as a decrease in apparent absorbance of mitochondrial suspensions at 540 nm. Oxygen consumption data were obtained using a Clark-type electrode in parallel experiments. Atomic absorption spectroscopy was utilized to monitor the transport of other cations by yeast mitochondria. Briefly, samples were taken at appropriate times and the mitochondria were rapidly sedimented in a microcentrifuge. After carefully removing supernatants, the pellets were solubilized with 2 N percholoric acid (overnight) and centrifuged a second time. The resulting supernatants were diluted with an appropriate volume of distilled water and the concentration of the cation in question was subsequently determined.

intact yeast = experiment: Aequorin luminescence in intact yeast cells expressing mitochondrially targeted aequorin; format: cell-based, Saccharomyces cerevisiae; conditions: intact cells, FIG. 19B
Method: Yeast cells (strain X4003-5B; leu2, ade1, his4, met2, ura3, trp5, gal1) obtained from the Yeast Genetic Stock Center (Berkeley, Calif.) were transformed with the pYES2 plasmid, encoding the human mitochondrially targeted apoaequorin fragment, using the lithium acetate method (Sambrook et al., 1989), and INVSc1 cells were transformed with the pGK plasmid encoding the yeast mitochondrially targeted apoaequorin fragment. Selection was carried out on plates prepared with synthetic complete medium minus uracil (SC-U) (Sherman, 1991 Meths. Enzymol. 194:3). Transformed colonies were cultured in a small volume of SC-U and assayed for aequorin activity in vitro as described by Nakajima et al. (1991 Proc. Nat. Acad. Sci. USA 88:6878). Briefly, the cells were harvested by centrifugation, resuspended in lysis buffer (50 mM Tris, 2 mM EDTA, 0.5 mM PMSF, pH 8 w/NaOH), disrupted by vortexing with glass beads, and then treated with 0.1% Triton X-100 to release apoaequorin from the mitochondria. Following centrifugation, 200 μl aliquots of the supernatants were incubated with coelenterazine (2.5 μM) and 2-mercaptoethanol (2 μl), for ˜3 hr while standing on ice, to form the luminescent aequorin from its apoprotein. The coelenterazine cofactor is highly hydrophobic and readily permeates yeast cell membranes (Nakajima et al., 1991) such that reconstitution was conducted without disrupting the cells in some cases. 2-mercaptoethanol was omitted when intact cells were employed. A transformant which yielded high luminescence (named X4003-5B-AEQmito1) was selected for further characterization.
For preculture, the transformant was inoculated into 50 ml of SC-U plus 2% glucose, and incubated in an air shaker at 180 rpm and 30° C. At 24 hr, the preculture was transferred to 500 ml of a medium containing 1% yeast extract, 2% peptone, 2% lactate, 1% galactose, 0.012% adenine, pH 5 w/NaOH, and growth was continued under conditions which were otherwise the same. […]
Luminescence measurements were carried out in 6×50 mm culture tubes, using a total volume of 0.3 ml, and were started by injection of 5-20 μl of mitochondria or cells. […] For each value, the ratio of observed luminescence (L) to the potential luminescence remaining (Lmax) was calculated, and compared to a calibration curve which relates this ratio to the free Ca^2+ concentration. […] The total luminescence available initially (Ltotal) must be known and was determined in separate experiments, wherein a saturating Ca^2+ concentration (20 μM) is employed to discharge the aequorin completely. This value allows Lmax to be calculated at any time, as Ltotal minus the sum of luminescence that already occurred. […]

CO[C@@H]1C[C@@H](C[C@H]2CC[C@H](C)[C@H]([C@@H](C)C(=O)O)O2)O[C@]2(O[C@](C)([C@H]3CC[C@@](C)([C@@H]4O[C@@H]([C@H]5O[C@@](O)(CO)[C@H](C)C[C@@H]5C)C[C@@H]4C)O3)C[C@H]2C)[C@@H]1C [Nigericin]
influence on activity of the transporter in yeast mitochondria [1]: not influenced
Rate of increase in matrix Ca^2+ concentration [1]: 2.17 ± .12 nM/s
% of Control [1]: 111%

CC(C)[C@@H]1NC(=O)[C@H](C)OC(=O)[C@@H](C(C)C)NC(=O)[C@@H](C(C)C)OC(=O)[C@H](C(C)C)NC(=O)[C@H](C)OC(=O)[C@@H](C(C)C)NC(=O)[C@@H](C(C)C)OC(=O)[C@H](C(C)C)NC(=O)[C@H](C)OC(=O)[C@@H](C(C)C)NC(=O)[C@@H](C(C)C)OC1=O [Valinomycin]
influence on activity of the transporter in yeast mitochondria [1]: not influenced
Rate of increase in matrix Ca^2+ concentration [1]: 2.32 ± .31 nM/s
% of Control [1]: 118%

N#CC(C#N)=NNc1cccc(Cl)c1 [CCP, carbonyl cyanide m-chlorophenylhydrazone]
activation of ETH 129 mediated Ca2+ transport [2]: rate enhancement increasing progressively as the CCP concentration rose to 5 μM

O=C(O)CN(CCOCCOCCN(CC(=O)O)CC(=O)O)CC(=O)O [EGTA]
effect on the depression of ΔΨ produced by ETH 129 plus Ca2+ (yeast mitochondria): reversed

coelenterazine n
luminescence intensity as aequorin cofactor vs parent coelenterazine (intact yeast): comparable to that of the parent

N.N.N.N.N.N.N.N.N.N.N.N.N.N.[Cl-].[Cl-].[Cl-].[Cl-].[Cl-].[Cl-].[O-2].[O-2].[Ru+3].[Ru+3].[Ru+4] [Ruthenium red]
influence on activity of the transporter in yeast mitochondria [1]: not influenced
Rate of increase in matrix Ca^2+ concentration [1]: 2.21 ± .23 nM/s
% of Control [1]: 113%

C=C1[C@@H]2CC[C@H]3[C@]4(C)C[C@H](O[C@@H]5O[C@H](CO)[C@@H](OS(=O)(=O)O)[C@H](OS(=O)(=O)O)[C@H]5OC(=O)CC(C)C)CC(C(=O)O)(C(=O)O)[C@H]4CC[C@]3(C2)[C@H]1O [carboxyatractyloside]
effect on the depression of ΔΨ produced by ETH 129 plus Ca2+ (yeast mitochondria): no effect

C[C@H](CCC(=O)O)C[C@H](C)C[C@H](C)C(=O)/C=C(\O)[C@H](C)C[C@H](C)C/C=C/[C@@H](C)[C@@H](O)[C@@H](C)[C@@H](O)C[C@@H]1CC[C@@](C)([C@H]2CC[C@@](C)([C@@H](C)O)O2)O1 [ionomycin]
effect on ΔΨ, ionophore together with Ca2+ (yeast mitochondria; BSA absent, CaCl2 plus ionophore, FIG. 11C): not duplicated
